Measured values reported in the supplement of paper PMC10307832.

Experiments:
Test in all cases: relative viability (nuclei count vs DMSO), 5 days (fraction); higher = more cells survive
[1] = compound: CN(C)CC1=CC(=CC=C1)N=C(C2=CC=CC=C2)C3=C(NC4=C3C=CC(=C4)C(=O)N(C)C)O + CC(=O)Nc1cccc(-n2c(=O)n(C3CC3)c(=O)c3c(Nc4ccc(I)cc4F)n(C)c(=O)c(C)c32)c1 [Trametinib] (partner 0.02 µM)
How it was run: (§1)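 The day after seeding in 1536-well plates, lung cancer cell lines were treated by pin tool with a single drug, or with a fixed anchor-drug dose together with five library-drug doses (not always all listed) in √10 steps. After 5 days, a combined fix-and-stain solution (final 0.05% Triton X-100, 1% formaldehyde, 1 ug/ml Hoechst) was added. Nuclei counted on 4× images gave relative viability as treated counts over vehicle counts, reported as the median of duplicate plates.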

[2] = compound: CN(C)CC1=CC(=CC=C1)N=C(C2=CC=CC=C2)C3=C(NC4=C3C=CC(=C4)C(=O)N(C)C)O + CC1(C)CCC(c2ccc(Cl)cc2)=C(CN2CCN(c3ccc(C(=O)NS(=O)(=O)c4ccc(N[C@H](CCN5CCOCC5)CSc5ccccc5)c(S(=O)(=O)C(F)(F)F)c4)cc3)CC2)C1 [Navitoclax] (partner 0.5 µM)
How it was run: as §1

[3] = compound: CN(C)CC1=CC(=CC=C1)N=C(C2=CC=CC=C2)C3=C(NC4=C3C=CC(=C4)C(=O)N(C)C)O + N=C(N)NC(=N)NCCc1ccccc1 [Phenformin] (partner 250 µM)
How it was run: as §1

[4] = compound: CN(C)CC1=CC(=CC=C1)N=C(C2=CC=CC=C2)C3=C(NC4=C3C=CC(=C4)C(=O)N(C)C)O + Nc1nc2[nH]cc(CCc3ccc(C(=O)N[C@@H](CCC(=O)O)C(=O)O)cc3)c2c(=O)[nH]1 [Pemetrexed] (partner 0.2 µM)
How it was run: as §1

Cell Line LCLC-97TM1 has a relative viability ([1]; first compound 0.08 µM) of 0.231, a relative viability ([1]; first compound 0.253 µM) of 0.222 and a relative viability ([1]; first compound 0.8 µM) of 0.2. For the same cell line, the relative viability ([1]; first compound 2.53 µM) was 0.191, the relative viability ([1]; first compound 8 µM) was 0.176 and the relative viability ([2]; first compound 0.08 µM) was 0.325. For the same cell line, the relative viability ([2]; first compound 0.253 µM) was 0.276, the relative viability ([2]; first compound 0.8 µM) was 0.362 and the relative viability ([2]; first compound 2.53 µM) was 0.395. It also gave a relative viability ([2]; first compound 8 µM) of 0.734, a relative viability ([3]; first compound 0.08 µM) of 0.466 and a relative viability ([3]; first compound 0.253 µM) of 0.408. For the same cell line, the relative viability ([3]; first compound 0.8 µM) was 0.475, the relative viability ([3]; first compound 2.53 µM) was 0.438 and the relative viability ([3]; first compound 8 µM) was 0.422. The relative viability ([4]; first compound 0.08 µM) was 0.167, the relative viability ([4]; first compound 0.253 µM) was 0.198 and the relative viability ([4]; first compound 0.8 µM) was 0.187. For the same cell line, the relative viability ([4]; first compound 2.53 µM) was 0.183 and the relative viability ([4]; first compound 8 µM) was 0.177.
SK-MES-1 gave a relative viability ([1]; first compound 0.08 µM) of 0.524, a relative viability ([1]; first compound 0.253 µM) of 0.576 and a relative viability ([1]; first compound 0.8 µM) of 0.588. The relative viability ([1]; first compound 2.53 µM) was 0.497, the relative viability ([1]; first compound 8 µM) was 0.406 and the relative viability ([2]; first compound 0.08 µM) was 1.25. It also gave a relative viability ([2]; first compound 0.253 µM) of 1.26, a relative viability ([2]; first compound 0.8 µM) of 1.09 and a relative viability ([2]; first compound 2.53 µM) of 1.15. For the same cell line, the relative viability ([2]; first compound 8 µM) was 1.1, the relative viability ([3]; first compound 0.08 µM) was 0.646 and the relative viability ([3]; first compound 0.253 µM) was 0.597. The relative viability ([3]; first compound 0.8 µM) was 0.645, the relative viability ([3]; first compound 2.53 µM) was 0.612 and the relative viability ([3]; first compound 8 µM) was 0.522. It also gave a relative viability ([4]; first compound 0.08 µM) of 0.961, a relative viability ([4]; first compound 0.253 µM) of 0.881 and a relative viability ([4]; first compound 0.8 µM) of 1. It also gave a relative viability ([4]; first compound 2.53 µM) of 0.89 and a relative viability ([4]; first compound 8 µM) of 0.897.
Cell Line A-427 has a relative viability ([1]; first compound 0.08 µM) of 0.752, a relative viability ([1]; first compound 0.253 µM) of 0.787 and a relative viability ([1]; first compound 0.8 µM) of 0.776. It also gave a relative viability ([1]; first compound 2.53 µM) of 0.686, a relative viability ([1]; first compound 8 µM) of 0.663 and a relative viability ([2]; first compound 0.08 µM) of 0.96. For the same cell line, the relative viability ([2]; first compound 0.253 µM) was 0.961, the relative viability ([2]; first compound 0.8 µM) was 1.01 and the relative viability ([2]; first compound 2.53 µM) was 0.92. For the same cell line, the relative viability ([2]; first compound 8 µM) was 0.964, the relative viability ([3]; first compound 0.08 µM) was 0.378 and the relative viability ([3]; first compound 0.253 µM) was 0.385. For the same cell line, the relative viability ([3]; first compound 0.8 µM) was 0.308, the relative viability ([3]; first compound 2.53 µM) was 0.257 and the relative viability ([3]; first compound 8 µM) was 0.266. The relative viability ([4]; first compound 0.08 µM) was 1.06, the relative viability ([4]; first compound 0.253 µM) was 0.993 and the relative viability ([4]; first compound 0.8 µM) was 1. It also gave a relative viability ([4]; first compound 2.53 µM) of 0.955 and a relative viability ([4]; first compound 8 µM) of 0.926.
NCI-H460 was tested, and the relative viability ([1]; first compound 0.08 µM) was 0.142, the relative viability ([1]; first compound 0.253 µM) was 0.133 and the relative viability ([1]; first compound 0.8 µM) was 0.195. The relative viability ([1]; first compound 2.53 µM) was 0.0771, the relative viability ([1]; first compound 8 µM) was 0.163 and the relative viability ([2]; first compound 0.08 µM) was 1.05. It also gave a relative viability ([2]; first compound 0.253 µM) of 1.13, a relative viability ([2]; first compound 0.8 µM) of 1.07 and a relative viability ([2]; first compound 2.53 µM) of 1.05. For the same cell line, the relative viability ([2]; first compound 8 µM) was 1.05, the relative viability ([3]; first compound 0.08 µM) was 0.592 and the relative viability ([3]; first compound 0.253 µM) was 0.491. It also gave a relative viability ([3]; first compound 0.8 µM) of 0.558, a relative viability ([3]; first compound 2.53 µM) of 0.43 and a relative viability ([3]; first compound 8 µM) of 0.449. The relative viability ([4]; first compound 0.08 µM) was 0.0639, the relative viability ([4]; first compound 0.253 µM) was 0.0794 and the relative viability ([4]; first compound 0.8 µM) was 0.0612. For the same cell line, the relative viability ([4]; first compound 2.53 µM) was 0.0522 and the relative viability ([4]; first compound 8 µM) was 0.0565.
Work on HCC-44 yielded a relative viability ([1]; first compound 0.08 µM) of 1.04, a relative viability ([1]; first compound 0.253 µM) of 1.04 and a relative viability ([1]; first compound 0.8 µM) of 1.08. The relative viability ([1]; first compound 2.53 µM) was 1.04, the relative viability ([1]; first compound 8 µM) was 1.12 and the relative viability ([2]; first compound 0.08 µM) was 0.948. For the same cell line, the relative viability ([2]; first compound 0.253 µM) was 0.95, the relative viability ([2]; first compound 0.8 µM) was 0.942 and the relative viability ([2]; first compound 2.53 µM) was 0.995. It also gave a relative viability ([2]; first compound 8 µM) of 0.994, a relative viability ([3]; first compound 0.08 µM) of 0.179 and a relative viability ([3]; first compound 0.253 µM) of 0.4. The relative viability ([3]; first compound 0.8 µM) was 0.185, the relative viability ([3]; first compound 2.53 µM) was 0.192 and the relative viability ([3]; first compound 8 µM) was 0.176. For the same cell line, the relative viability ([4]; first compound 0.08 µM) was 0.691, the relative viability ([4]; first compound 0.253 µM) was 0.583 and the relative viability ([4]; first compound 0.8 µM) was 0.693. The relative viability ([4]; first compound 2.53 µM) was 0.598 and the relative viability ([4]; first compound 8 µM) was 0.716.
Work on NCI-H2009 yielded a relative viability ([1]; first compound 0.08 µM) of 0.276, a relative viability ([1]; first compound 0.253 µM) of 0.314 and a relative viability ([1]; first compound 0.8 µM) of 0.271. It also gave a relative viability ([1]; first compound 2.53 µM) of 0.297, a relative viability ([1]; first compound 8 µM) of 0.244 and a relative viability ([2]; first compound 0.08 µM) of 1.14. The relative viability ([2]; first compound 0.253 µM) was 1.12, the relative viability ([2]; first compound 0.8 µM) was 1.17 and the relative viability ([2]; first compound 2.53 µM) was 1.16. For the same cell line, the relative viability ([2]; first compound 8 µM) was 1.17, the relative viability ([3]; first compound 0.08 µM) was 0.508 and the relative viability ([3]; first compound 0.253 µM) was 0.484. For the same cell line, the relative viability ([3]; first compound 0.8 µM) was 0.49, the relative viability ([3]; first compound 2.53 µM) was 0.416 and the relative viability ([3]; first compound 8 µM) was 0.372. For the same cell line, the relative viability ([4]; first compound 0.08 µM) was 0.982, the relative viability ([4]; first compound 0.253 µM) was 0.993 and the relative viability ([4]; first compound 0.8 µM) was 1.08. It also gave a relative viability ([4]; first compound 2.53 µM) of 1.03 and a relative viability ([4]; first compound 8 µM) of 0.957.
For NCI-H1650, the relative viability ([1]; first compound 0.08 µM) was 0.69, the relative viability ([1]; first compound 0.253 µM) was 0.569 and the relative viability ([1]; first compound 0.8 µM) was 0.63. The relative viability ([1]; first compound 2.53 µM) was 0.604, the relative viability ([1]; first compound 8 µM) was 0.601 and the relative viability ([2]; first compound 0.08 µM) was 1.23. The relative viability ([2]; first compound 0.253 µM) was 1.16, the relative viability ([2]; first compound 0.8 µM) was 1.3 and the relative viability ([2]; first compound 2.53 µM) was 1.15. It also gave a relative viability ([2]; first compound 8 µM) of 1.08, a relative viability ([3]; first compound 0.08 µM) of 0.481 and a relative viability ([3]; first compound 0.253 µM) of 0.55. It also gave a relative viability ([3]; first compound 0.8 µM) of 0.412, a relative viability ([3]; first compound 2.53 µM) of 0.49 and a relative viability ([3]; first compound 8 µM) of 0.4. For the same cell line, the relative viability ([4]; first compound 0.08 µM) was 0.34, the relative viability ([4]; first compound 0.253 µM) was 0.353 and the relative viability ([4]; first compound 0.8 µM) was 0.344. It also gave a relative viability ([4]; first compound 2.53 µM) of 0.373 and a relative viability ([4]; first compound 8 µM) of 0.39.
Work on NCI-H2085 yielded a relative viability ([1]; first compound 0.08 µM) of 0.509, a relative viability ([1]; first compound 0.253 µM) of 0.568 and a relative viability ([1]; first compound 0.8 µM) of 0.599. For the same cell line, the relative viability ([1]; first compound 2.53 µM) was 0.643, the relative viability ([1]; first compound 8 µM) was 0.545 and the relative viability ([2]; first compound 0.08 µM) was 1.24. It also gave a relative viability ([2]; first compound 0.253 µM) of 1.16, a relative viability ([2]; first compound 0.8 µM) of 1.06 and a relative viability ([2]; first compound 2.53 µM) of 1.16. For the same cell line, the relative viability ([2]; first compound 8 µM) was 1.18, the relative viability ([3]; first compound 0.08 µM) was 0.747 and the relative viability ([3]; first compound 0.253 µM) was 0.711. It also gave a relative viability ([3]; first compound 0.8 µM) of 0.635, a relative viability ([3]; first compound 2.53 µM) of 0.784 and a relative viability ([3]; first compound 8 µM) of 0.638. For the same cell line, the relative viability ([4]; first compound 0.08 µM) was 0.87, the relative viability ([4]; first compound 0.253 µM) was 0.948 and the relative viability ([4]; first compound 0.8 µM) was 0.832. For the same cell line, the relative viability ([4]; first compound 2.53 µM) was 0.908 and the relative viability ([4]; first compound 8 µM) was 0.901.
